Assay results as given in publication PMC9944328 (Nature Communications, 2023).
Read-outs that look alike come from different tables or passages of the source.

Test system: SSTR2 mutants
Test: NanoBiT β-arrestin 1 recruitment assay, HEK293 (SSTR2 mutants);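 as to Emax: percent of the maximal wild-type SSTR2 response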;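 as to Top: percent of maximal wild-type response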
Type: cell-based, human
Parameters: Bottom / Span / Bottom (best-fit) / Span (best-fit) / Best-fit values Bottom / Best-fit values Span / Bottom (best-fit value) / Span (best-fit value):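 percent of maximal wild-type response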
Settings: for EC50: read-out: EC50
Procedure: The NanoBiT β-arrestin 1 recruitment assays were carried out according to the method described previously. […] Human full-length SSTR wild-type and mutant vectors were C-terminally fused with a 15-amino acid flexible linker and the small fragment (SmBiT). HEK293 cells were seeded into six-well microplates at a density of 1.0 × 10^6 cells/well and cultured for 24 h at 37 °C with 5% CO2. After that, cells were co-transfected with pcDNA3.1+ vectors encoding SSTR wild-type or mutants and human β-arrestin 1. After transfecting for 24 h, the transfected cells were suspended and seeded into white 96-well plates, and then cultured at 37 °C overnight. After that the medium in each well was exchanged for 90 μl of 0.01% bovine serum albumin containing 20 μl of 50 μM coelenterazine h (Carbosynth) diluted in the HBSS assay buffer and incubated for 40 min at room temperature. Then, ligands diluted in the assay buffer was added to each well and the luminescence intensity was measured using the Synergy H1 microplate reader and detected at room temperature in a time period. All data presented are means of at least three independent experiments.

[1] = best-fit value, T194A-1 (run 1)
[2] = best-fit value, T194A-2 (run 2)
[3] = best-fit value, T194A-3 (run 3)
[4] = best-fit value, V103A-1 (run 1)
[5] = best-fit value, V103A-2 (run 2)
[6] = best-fit value, V103A-3 (run 3)
[7] = β-arrestin recruitment, SSTR2 F127(3.37)A, n=3
[8] = β-arrestin recruitment, SSTR2 I195(45.52)A, n=3, ND = not detected
[9] = β-arrestin recruitment, SSTR2 I284ECL3A, n=3
[10] = β-arrestin recruitment, SSTR2 L290(7.31)A, n=3
[11] = β-arrestin recruitment, SSTR2 P286ECL3A, n=3
[12] = β-arrestin recruitment, SSTR2 S279(6.58)A, n=3
[13] = β-arrestin recruitment, SSTR2 S285ECL3A, n=3
[14] = β-arrestin recruitment, SSTR2 T287ECL3A, n=3
[15] = β-arrestin recruitment, SSTR2 V103(2.64)A, n=3, ND = not detected
[16] = β-arrestin recruitment, SSTR2 W188ECL3A, n=3
[17] = β-arrestin recruitment, SSTR2 W269(6.48)A, n=3
[18] = β-arrestin recruitment, SSTR2 Y50(1.39)A, n=3
[19] = β-arrestin recruitment, SSTR2 Y205(5.35)A, n=3
[20] = β-arrestin recruitment, SSTR2 Y302(7.43)A, n=3

## C[C@@H](O)[C@@H]1NC(=O)[C@H](CCCCN)NC(=O)[C@@H](Cc2c[nH]c3ccccc23)NC(=O)[C@H](Cc2ccccc2)NC(=O)[C@@H](NC(=O)[C@H](N)Cc2ccccc2)CSSC[C@@H](C(=O)N[C@H](CO)[C@@H](C)O)NC1=O [octreotide]
best-fit value, L99A-3 (run 3)
  LogEC50: -6.902
  Span: 131.2
  Top: 128.3
[1]
  LogEC50: -7.278
  Span: 56.43
  EC50: 52.8 nM
[2]
  LogEC50: -7.381
  Span: 55.9
  EC50: 41.6 nM
[3]
  LogEC50: -7.29
  Span: 56.81
  EC50: 51.3 nM
[4]
  Bottom: -1.867
  LogEC50: -7.141
  Span: 86.59
  Top: 84.73
  EC50: 72.2 nM
[5]
  Bottom: -2.214
  LogEC50: -7.263
  Span: 87.54
  Top: 85.33
  EC50: 54.6 nM
[6]
  Bottom: -2.646
  LogEC50: -7.193
  Span: 87.08
  Top: 84.44
  EC50: 64.1 nM
best-fit value, Y50A-1 (run 1)
  Bottom: -0.1631
  LogEC50: -8.742
  Span: 56.29
  Top: 56.13
  EC50: 1.81 nM
best-fit value, Y50A-2 (run 2)
  Bottom: -2.513
  LogEC50: -7.952
  Span: 74.92
  Top: 72.41
  EC50: 11.2 nM
best-fit value, Y50A-3 (run 3)
  Bottom: -0.965
  LogEC50: -8.796
  Span: 58.15
  Top: 57.19
  EC50: 1.6 nM
best-fit, I284A-1
  Bottom: 2.896
  LogEC50: -7.134
  Span: 74.77
  Top: 77.67
  EC50: 73.4 nM
best-fit, I284A-2
  Bottom: -1.923
  LogEC50: -7.815
  Span: 108.7
  Top: 106.8
  EC50: 15.3 nM
best-fit, I284A-3
  Bottom: 2.808
  LogEC50: -7.106
  Span: 79.8
  Top: 82.61
  EC50: 78.4 nM
best-fit, P286A-1
  LogEC50: -8.053
  Span: 62.29
  Top: 66.68
  EC50: 8.86 nM
best-fit, P286A-2
  Bottom: 2.819
  LogEC50: -8.168
  Span: 59.43
  Top: 62.25
  EC50: 6.79 nM
best-fit, P286A-3
  Bottom: 4.198
  LogEC50: -8.213
  Span: 84.87
  Top: 89.07
  EC50: 6.12 nM
best-fit, S285A-1
  Bottom: 2.2
  LogEC50: -9.537
  Span: 70
  Top: 72.2
  EC50: 0.29 nM
best-fit, S285A-2
  Bottom: 3.756
  LogEC50: -9.426
  Span: 71.47
  Top: 75.22
  EC50: 0.375 nM
best-fit, S285A-3
  Bottom: 9.309
  LogEC50: -8.736
  Span: 80.53
  Top: 89.84
  EC50: 1.84 nM
best-fit, T194A-1
  Bottom: -0.5401
  Top: 55.89
best-fit, T194A-2
  Bottom: -0.9576
  Top: 54.95
best-fit, T194A-3
  Bottom: -0.591
  Top: 56.22
best-fit, T287A-1
  Bottom: 4.198
  LogEC50: -8.213
  Span: 84.87
  Top: 89.07
  EC50: 6.12 nM
best-fit, T287A-2
  Bottom: 5.592
  LogEC50: -8.324
  Span: 86.73
  Top: 92.33
  EC50: 4.75 nM
best-fit, T287A-3
  Bottom: 0.1327
  LogEC50: -8.522
  Span: 80.53
  Top: 80.66
  EC50: 3 nM
best-fit, W188A-1
  LogEC50: -8.611
  Span: 57.05
  Top: 61.7
  EC50: 2.45 nM
best-fit, W188A-2
  Bottom: 0.0794
  LogEC50: -8.245
  Span: 81.84
  Top: 81.92
  EC50: 5.69 nM
best-fit, W188A-3
  Bottom: 6.02
  LogEC50: -8.295
  Span: 58.94
  Top: 64.96
  EC50: 5.07 nM
β-arrestin recruitment, I130A, earlier manuscript version quoted by reviewer, superseded
  Emax: 60%
β-arrestin recruitment, SSTR2 D295(7.36)A, detected at 10 μM, n=3
  Emax: 119.20±34.68 %WT
β-arrestin recruitment, SSTR2 D295(7.36)A, n=3
  EC50: 319 ± 6.78 nM
[7]
  Emax: 52.62±2.57 %WT
  EC50: 4.33 ± 1.53 nM
β-arrestin recruitment, SSTR2 F208(5.38)A, n=3
  Emax: 75.93±9.81 %WT
β-arrestin recruitment, SSTR2 F208(5.38)A, n=3, ND = not detected
  EC50: 163 ± 6.17 nM
β-arrestin recruitment, SSTR2 F265(6.44)A, detected at 10 μM, n=3 octreotide, 4 paltusotine
  Emax: 67.17±9.75 %WT
β-arrestin recruitment, SSTR2 I130(3.40)A, detected at 10 μM, n=3
  Emax: 76.52±9.52 %WT
[8]
  Emax: 59.10±0.47 %WT
  EC50: 54.3 ± 4.1 nM
[9]
  Emax: 89.03±9.00 %WT
  EC50: 55.7 ± 2.03 nM
β-arrestin recruitment, SSTR2 L99(2.60)A, n=3
  Emax: 96.13±25.27 %WT
β-arrestin recruitment, SSTR2 L99(2.60)A, n=3, ND = not detected
  EC50: 91.6 ± 3.34 nM
[10]
  Emax: 85.66±1.04 %WT
  EC50: 1.8 nM
β-arrestin recruitment, SSTR2 P220(5.50)A, n=3
  Emax: 61.16±16.24 %WT
β-arrestin recruitment, SSTR2 P220(5.50)A, n=3 octreotide, 4 paltusotine, ND = not detected
  EC50: 99.8 ± 9 nM
[11]
  Emax: 76.51±12.11 %WT
  EC50: 6.35 ± 1.59 nM
β-arrestin recruitment, SSTR2 Q102(2.63)A, detected at 10 μM, n=3
  Emax: 57.95±5.20 %WT
[12]
  Emax: 87.86±7.76 %WT
  EC50: 11.9 ± 4.76 nM
[13]
  Emax: 79.09±5.45 %WT
  EC50: 0.84 nM
β-arrestin recruitment, SSTR2 T194(45.51)A, n=3
  Emax: 55.69±0.38 %WT
β-arrestin recruitment, SSTR2 T194(45.51)A, n=3, ND = not detected
  EC50: 48.7 ± 3.38 nM
[14]
  Emax: 87.90±2.95 %WT
  EC50: 4.71 ± 8.35 nM
[15]
  Emax: 84.83±0.26 %WT
  EC50: 63.7 ± 5.11 nM
[16]
  Emax: 69.46±6.21 %WT
  EC50: 4.34 ± 9.5 nM
[17]
  Emax: 33.36±2.81 %WT
  EC50: 55.3 ± 1.35 nM
[18]
  Emax: 61.91±5.26 %WT
  EC50: 4.87 ± 3.17 nM
[19]
  Emax: 108.30±13.91 %WT
  EC50: 8.52 ± 5.74 nM
[20]
  Emax: 109.40±18.82 %WT
  EC50: 1.82 nM
